Assay results taken from US11427567B2, “Imidazolyl pyrimidinylamine compounds as CDK2 inhibitors” (Incyte Corporation, priority 2019, dated 2022).

molecular target: CDK2/Cyclin E1 (Homo sapiens (Human), UniProt P24941); assay: CDK2/Cyclin E1 HTRF enzyme activity assay (Example A); type: biochemical; settings: 1 mM ATP
Method: Assays were conducted in white 384-well polystyrene plates in a final reaction volume of 8 μL. […] HTRF signals were read after 1 hour at room temperature on a PHERAstar FS plate reader (BMG Labtech). Data was analyzed with IDBS XLFit and GraphPad Prism 5.0 software using a three or four parameter dose response curve to determine IC50 for each compound.

IC50, ≤ 0.05 µM:
CS(=O)(=O)N1CCC(Nc2ncc(C(F)(F)F)c(-c3cn(-c4c(F)cc(CN5CCC5)cc4Cl)cn3)n2)CC1 [Example 395, 4-(1-(4-(Azetidin-1-ylmethyl)-2-chloro-6-fluorophenyl)-1H-imidazol-4-yl)-N-(1-(methyslulfonyl)piperidin-4-yl)-5-(trifluoromethyl)pyrimidin-2-amine]
CC(O)c1ccc(-n2cnc(-c3nc(NC4CCN(S(C)(=O)=O)CC4)ncc3C(F)(F)F)c2)c(Cl)c1 (centres unmarked) [Example 248, 1-(3-Chloro-4-(4-(2-((1-(methylsulfonyl)piperidin-4-yl)amino)-5-(trifluoromethyl)pyrimidin-4-yl)-1H-imidazol-1-yl)phenyl)ethan-1-ol]
Cn1nccc1-c1ccc(-n2cnc(-c3nc(NC4CCN(S(C)(=O)=O)CC4)ncc3C(F)(F)F)c2)c(Cl)c1 [Example 119, 4-(1-(2-Chloro-4-(1-methyl-1H-pyrazol-5-yl)phenyl)-1H-imidazol-4-yl)-N-(1-(methylsulfonyl)piperidin-4-yl)-5-(trifluoromethyl)pyrimidin-2-amine]
CS(=O)(=O)N1CCC(Nc2ncc(C(F)(F)F)c(-c3cn(-c4ccc(CN5CCCCC5)cc4C#N)cn3)n2)CC1 [Example 345, 2-(4-(2-((1-(Methylsulfonyl)piperidin-4-yl)amino)-5-(trifluoromethyl)pyrimidin-4-yl)-1H-imidazol-1-yl)-5-(piperidin-1-ylmethyl)benzonitrile]
Cn1cc(-c2nc(NC3CCN(S(C)(=O)=O)CC3)ncc2C(F)(F)F)nc1CO [Example 17, (1-Methyl-4-(2-((1-(methylsulfonyl)piperidin-4-yl)amino)-5-(trifluoromethyl)pyrimidin-4-yl)-1H-imidazol-2-yl)methanol]
Cc1nc(-c2nc(NC3CCN(S(C)(=O)=O)CC3)ncc2C(F)(F)F)cn1-c1ccc(OC[C@H]2CCCN2C)cc1F [Example 426, (R)-4-(1-(2-Fluoro-4-((1-methylpyrrolidin-2-yl)methoxy)phenyl)-2-methyl-1H-imidazol-4-yl)-N-(1-(methylsulfonyl)piperidin-4-yl)-5-(trifluoromethyl)pyrimidin-2-amine]
CS(=O)(=O)N1CCC(Nc2ncc(C#N)c(-c3cn(-c4ccc(C#N)cc4Cl)cn3)n2)CC1 [Example 28, 4-(1-(2-Chloro-4-cyanophenyl)-1H-imidazol-4-yl)-2-((1-(methylsulfonyl)piperidin-4-yl)amino)pyrimidine-5-carbonitrile]
CS(=O)(=O)N1CCC(Nc2ncc(C(F)(F)F)c(-c3cn(-c4cccnc4C(F)(F)F)cn3)n2)CC1 [Example 32, N-(1-(Methylsulfonyl)piperidin-4-yl)-5-(trifluoromethyl)-4-(1-(2-(trifluoromethyl)pyridin-3-yl)-1H-imidazol-4-yl)pyrimidin-2-amine]
Cc1nc(-c2nc(NC3CCN(S(C)(=O)=O)CC3)ncc2C(F)(F)F)cn1-c1ccc(N2CCNCC2)cc1F [Example 111, 4-(1-(2-Fluoro-4-(piperazin-1-yl)-phenyl)-2-methyl-1H-imidazol-4-yl)-N-(1-(methyl-sulfonyl)piperidin-4-yl)-5-(trifluoro-methyl)pyrimidin-2-amine]
CCN1CCN(Cc2cc(F)c(-n3cnc(-c4nc(N[C@@H]5CCN(S(C)(=O)=O)C[C@H]5F)ncc4C(F)(F)F)c3)c(Cl)c2)CC1 [Example 403, 4-(1-(2-Chloro-4-((4-ethylpiperazin-1-yl)methyl)-6-fluorophenyl)-1H-imidazol-4-yl)-N-((3R,4R)-3-fluoro-1-(methylsulfonyl)piperidin-4-yl)-5-(trifluoromethyl)pyrimidin-2-amine]
Cc1nc(-c2nc(NC3CCN(S(C)(=O)=O)CC3)ncc2C(F)(F)F)cn1-c1ccc(CN2CC(O)C2)cc1F [Example 355, 1-(3-Fluoro-4-(2-methyl-4-(2-((1-(methylsulfonyl)piperidin-4-yl)amino)-5-(trifluoromethyl)pyrimidin-4-yl)-1H-imidazol-1-yl)benzyl)azetidin-3-ol]
O=S(=O)(C1CC1)N1CCC(Nc2ncc(C(F)(F)F)c(-c3cn(CC(F)F)cn3)n2)CC1 [Example 29, N-(1-(Cyclopropylsulfonyl)piperidin-4-yl)-4-(1-(2,2-difluoroethyl)-1H-imidazol-4-yl)-5-(trifluoromethyl)pyrimidin-2-amine]
CC(C)(O)C1CN(Cc2ccc(-n3cnc(-c4nc(NC5CCN(S(C)(=O)=O)CC5)ncc4C(F)(F)F)c3)c(Cl)c2)C1 [Example 203, 2-(1-(3-Chloro-4-(4-(2-((1-(methyl-sulfonyl)piperidin-4-yl)amino)-5-(trifluoromethyl)-pyrimidin-4-yl)-1H-imidazol-1-yl)-benzyl)azetidin-3-yl)propan-2-ol]
CS(=O)(=O)N1CCC(Nc2ncc(C(F)(F)F)c(-c3cn(-c4ccnc(N5CCOCC5)c4C#N)cn3)n2)CC1 [Example 317, 4-(4-(2-((1-(Methylsulfonyl)piperidin-4-yl)amino)-5-(trifluoromethyl)pyrimidin-4-yl)-1H-imidazol-1-yl)-2-morpholinonicotinonitrile]
CCN(C)Cc1ccc(-n2cc(-c3nc(NC4CCN(S(C)(=O)=O)CC4)ncc3C(F)(F)F)nc2C)c(F)c1 [Example 358, 4-(1-(4-((Ethyl(methyl)amino)methyl)-2-fluorophenyl)-2-methyl-1H-imidazol-4-yl)-N-(1-(methylsulfonyl)piperidin-4-yl)-5-(trifluoromethyl)pyrimidin-2-amine]
Cc1nc(-c2nc(NC3CCN(S(C)(=O)=O)CC3)ncc2C(F)(F)F)cn1-c1ccc(CN2CCC2)cc1Cl [Example 284, 4-(1-(4-(Azetidin-1-ylmethyl)-2-chlorophenyl)-2-methyl-1H-imidazol-4-yl)-N-(1-(methylsulfonyl)piperidin-4-yl)-5-(trifluoromethyl)pyrimidin-2-amine]
CCNCc1ccc(-n2cnc(-c3nc(NC4CCN(S(C)(=O)=O)CC4)ncc3C(F)(F)F)c2)c(Cl)c1 [Example 189, 4-(1-(2-Chloro-4-((ethylamino)methyl)-phenyl)-1H-imidazol-4-yl)-N-(1-(methyl-sulfonyl)piperidin-4-yl)-5-(trifluoro-methyl)pyrimidin-2-amine]
Cc1ccc(-n2cnc(-c3nc(N[C@H]4CCN(S(C)(=O)=O)C[C@H]4F)ncc3C(F)(F)F)c2)c(C#N)n1 [Example 51, 3-(4-(2-(((3R,4S)-3-Fluoro-1-(methylsulfonyl)piperidin-4-yl)amino)-5-(trifluoromethyl)pyrimidin-4-yl)-1H-imidazol-1-yl)-6-methylpicolinonitrile]
CC(=O)Nc1nccc(-n2cnc(-c3nc(NC4CCN(S(=O)(=O)c5cn(C)cn5)CC4)ncc3C(F)(F)F)c2)c1C [Example 8, N-(3-Methyl-4-(4-(2-((1-((1-methyl-1H-imidazol-4-yl)sulfonyl)piperidin-4-yl)amino)-5-(trifluoromethyl)pyrimidin-4-yl)-1H-imidazol-1-yl)pyridin-2-yl)acetamide]
CS(=O)(=O)N1CCC(Nc2ncc(C(F)(F)F)c(-c3cn(-c4cccc(CCNC5CC5)c4Cl)cn3)n2)CC1 [Example 371, 4-(1-(2-Chloro-3-(2-(cyclopropylamino)eth-yl)phenyl)-1H-imidazol-4-yl)-N-(1-(methylsulfonyl)piperidin-4-yl)-5-(trifluoromethyl)pyrimi-din-2-amine]
